Measured values as given in ChEMBL document CHEMBL4184094, “Spiro-1-benzofuranpiperidinylalkanoic acids as a novel and selective sphingosine S1P5 receptor agonist chemotype” (Bioorg Med Chem Lett, 2018).
Values after ≈ are worked out from the molar mass of the structure shown.

Legend:
[1] = Aqueous kinetic solubility of the compound by turbidimetric method; type: physicochemical; settings: buffer; read-out: Kinetic_solubility
[2] = Half life in human microsomes assessed per mg protein; type: ADME, Microsome
[3] = target: Sphingosine 1-phosphate receptor 5 (Homo sapiens, UniProt Q9H228); test: Agonist activity at human S1P5 receptor expressed in CHO cells assessed as increase in calcium flux by aequorin-derived luminescence assay; type: functional, cell-based
Sequence of Sphingosine 1-phosphate receptor 5 (Q9H228 whole entry): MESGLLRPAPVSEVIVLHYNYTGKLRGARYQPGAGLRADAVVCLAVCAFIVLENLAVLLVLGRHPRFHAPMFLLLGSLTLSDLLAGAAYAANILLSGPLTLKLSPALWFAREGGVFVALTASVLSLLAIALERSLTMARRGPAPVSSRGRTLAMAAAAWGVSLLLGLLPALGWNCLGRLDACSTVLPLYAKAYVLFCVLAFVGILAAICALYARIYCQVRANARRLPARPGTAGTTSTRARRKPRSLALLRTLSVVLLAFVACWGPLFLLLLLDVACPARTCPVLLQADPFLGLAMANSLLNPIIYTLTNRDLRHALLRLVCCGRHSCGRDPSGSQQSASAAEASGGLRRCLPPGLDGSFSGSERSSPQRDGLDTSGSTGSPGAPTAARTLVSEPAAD

[4] = species: Homo sapiens; test: Selectivity ratio of EC50 for human S1P5 receptor expressed in CHO cells to EC50 for human S1P3 receptor expressed in CHO cells; type: cell-based
[5] = Intrinsic clearance in human microsomes assessed per mg protein; type: ADME, Microsome
[6] = target: Sphingosine 1-phosphate receptor 3 (Homo sapiens, UniProt Q99500); test: Agonist activity at human S1P3 receptor expressed in CHO cells assessed as increase in calcium flux by aequorin-derived luminescence assay; type: functional, cell-based
Sequence of Sphingosine 1-phosphate receptor 3 (Q99500 whole entry): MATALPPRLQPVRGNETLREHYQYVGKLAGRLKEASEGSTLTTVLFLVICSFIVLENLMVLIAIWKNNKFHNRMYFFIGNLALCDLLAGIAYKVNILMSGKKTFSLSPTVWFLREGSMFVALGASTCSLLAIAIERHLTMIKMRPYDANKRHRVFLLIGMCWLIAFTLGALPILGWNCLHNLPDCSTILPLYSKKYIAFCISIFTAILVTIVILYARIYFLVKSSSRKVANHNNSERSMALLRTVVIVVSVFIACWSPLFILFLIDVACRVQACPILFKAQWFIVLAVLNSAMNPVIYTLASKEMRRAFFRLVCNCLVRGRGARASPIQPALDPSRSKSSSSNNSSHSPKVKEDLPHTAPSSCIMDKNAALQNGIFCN

[7] = target: Sphingosine 1-phosphate receptor 1 (Homo sapiens, UniProt P21453); test: Agonist activity at human S1P1 receptor expressed in CHO cells assessed as increase in calcium flux by aequorin-derived luminescence assay; type: functional, cell-based
Sequence of Sphingosine 1-phosphate receptor 1 (P21453 whole entry): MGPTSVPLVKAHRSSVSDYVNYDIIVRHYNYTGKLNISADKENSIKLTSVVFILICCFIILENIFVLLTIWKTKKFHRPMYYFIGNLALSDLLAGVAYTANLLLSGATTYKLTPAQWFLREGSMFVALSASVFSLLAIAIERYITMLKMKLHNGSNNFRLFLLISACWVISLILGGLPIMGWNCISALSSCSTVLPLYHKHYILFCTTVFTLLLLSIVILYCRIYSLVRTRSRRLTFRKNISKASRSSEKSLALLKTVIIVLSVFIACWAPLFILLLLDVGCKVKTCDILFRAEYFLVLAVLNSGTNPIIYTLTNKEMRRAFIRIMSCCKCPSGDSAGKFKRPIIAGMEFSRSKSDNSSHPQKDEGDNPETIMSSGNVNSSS

[8] = species: Homo sapiens; test: Selectivity ratio of EC50 for human S1P5 receptor expressed in CHO cells to EC50 for human S1P1 receptor expressed in CHO cells; type: cell-based
[9] = Ratio of drug uptake in CNS to plasma in po dosed rat; type: ADME, organism-based; settings: CNS and plasma
[10] = Oral bioavailability in rat; type: ADME, organism-based; settings: in vivo

Structure (SMILES) | solubility kinetic [1] | half-life [2] | EC50 [3] | Ratio EC50 [4] | microsomal CLint [5] | EC50 [6] | EC50 [7] | Ratio EC50 [8] | Kp [9] | bioavailability [10] | t1/2 [2] | CL [5]
Cl.O=C(O)CCN1CCCC2(COc3cc(OCc4c(Cl)cccc4Cl)ccc32)C1 (stereo unspecified) | ≥ 100 µM | 7.57 h | 100 nM | 100 | 3.1 µL/min/mg |  |  |  |  |  |  | 
O=C(O)CCN1CCC2(CC1)COc1cc(OCc3cccc(Cl)c3)ccc12 |  |  | 316 nM |  |  | > 10000 nM | > 10000 nM |  |  |  |  | 
O=C(O)CCN1CCC2(CC1)COc1cc(OCc3cccc(Cl)c3Cl)ccc12 |  |  | 200 nM |  |  | > 10000 nM | 1580 nM |  |  |  |  | 
O=C(O)CCCN1CCC2(CC1)COc1cc(OCc3c(Cl)cccc3Cl)ccc12 |  |  | 15.8 nM |  |  | 1260 nM | 5010 nM |  |  |  |  | 
O=C(O)CCN1CCC2(CC1)COc1cc(OCc3ccccc3)ccc12 |  |  | 1000 nM |  |  | > 10000 nM | > 31600 nM |  |  |  |  | 
CCc1cccc(Cl)c1COc1ccc2c(c1)OCC21CCCN(CCC(=O)O)C1.Cl (stereo unspecified) | ≥ 100 µM | 6.82 h | 31.6 nM | 100 | 3.4 µL/min/mg | > 10000 nM | > 31600 nM | 1000 |  |  |  | 
CCc1cccc(Cl)c1COc1ccc2c(c1)OCC21CCN(CCC(=O)O)CC1 |  |  | 15.8 nM | 100 |  | > 10000 nM |  |  |  |  |  | 
O=C(O)CCN1CCC2(CC1)COc1cc(OCc3c(Cl)cccc3OC(F)(F)F)ccc12 |  |  | 20 nM |  |  |  | 3980 nM |  |  |  |  | 
Cl.O=C(O)CCN1CCC2(CC1)COc1cc(/C=C/c3c(Cl)cccc3Cl)ccc12 | 30 to 100 µM | 30.3 h | 12.6 nM |  | 0.76 µL/min/mg |  | > 31600 nM |  | 0.8 | 73% |  | 
O=C(O)CN1CCC2(CC1)COc1cc(OCc3c(Cl)cccc3Cl)ccc12 |  |  | 31.6 nM | 100 |  | > 1000 nM | 6310 nM |  |  |  |  | 
Cl.O=C(O)CCN1CCC2(CC1)COc1cc(C#Cc3ccccc3)ccc12 | 100 µM | 2.78 h | 39.8 nM |  | 8.3 µL/min/mg |  |  |  |  |  |  | 
O=C(O)CCN1CCC2(CC1)COc1cc(C#Cc3ccccc3Cl)ccc12 |  |  | 25.1 nM | 100 |  | > 10000 nM | > 31600 nM | 1000 |  |  |  | 
Cl.O=C(O)CN1CCC2(CC1)COc1cc(S(=O)(=O)Cc3c(Cl)cccc3Cl)ccc12 | ≥ 100 µM |  | 794 nM |  |  | > 10000 nM | > 31600 nM |  |  |  | 2.15 h | 33 µL/min
O=C(O)C(F)(F)F.O=C(O)CCN1CCC2(CC1)COc1cc(OCc3ccccc3Cl)ccc12 | 30 to 100 µM | 2.55 h | 126 nM |  | 9.1 µL/min/mg | > 31600 nM |  |  |  |  |  | 
O=P(O)(O)OCCN1CCC2(CC1)COc1cc(OCc3c(Cl)cccc3Cl)ccc12 |  |  | 20 nM | 100 |  | > 10000 nM | 251 nM |  |  |  |  | 
Cl.O=C(O)CCN1CCC2(CC1)COc1cc(OCc3c(Cl)cccc3Cl)ccc12 | ≥ 100 µM | 7.45 h | 158 nM |  | 3.1 µL/min/mg | > 10000 nM | 6310 nM |  | 0.2 |  |  | 

Structure (SMILES) | solubility kinetic [1] | half-life [2] | EC50 [3] | Ratio EC50 [4] | microsomal CLint [5] | EC50 [6] | EC50 [7] | Ratio EC50 [8] | Kp [9] | bioavailability [10] | t1/2 [2] | CL [5]
CC(C)c1cccc(Cl)c1COc1ccc2c(c1)OCC21CCN(CCC(=O)O)CC1.Cl | 30 to 100 µM | 11.2 h | 25.1 nM | 100 | 2.1 µL/min/mg | > 10000 nM | 1260 nM |  |  |  |  | 
CCCCCCCCc1ccc(CCC(N)(CO)CO)cc1 [FINGOLIMOD] | 1 to 6.5 µM (≈ 0.307 to 2 µg/mL) |  | 3160 nM |  |  | 2510 nM |  |  |  |  |  | 
Cl.O=C(O)CCN1CCC2(CC1)COc1c2ccc(OCc2c(Cl)cccc2Cl)c1F | 30 to 100 µM | 3.55 h | 6.31 nM | 1000 | 6.5 µL/min/mg | > 10000 nM | 1000 nM |  |  |  |  | 
O=C(O)CCN1CCC2(CC1)COc1cc(OCCCc3ccccc3)ccc12 |  |  | 2000 nM |  |  | 1580 nM | 5010 nM |  |  |  |  | 
CC(CN1CCC2(CC1)COc1cc(OCc3c(Cl)cccc3Cl)ccc12)C(=O)O (stereo unspecified) |  |  | 63.1 nM |  |  |  | 1260 nM |  |  |  |  | 
CCc1cccc(CC)c1COc1ccc2c(c1)OCC21CCN(CCC(=O)O)CC1 | ≥ 100 µM | 25.2 h | 20 nM |  | 0.92 µL/min/mg | 1580 nM | 1580 nM |  |  |  |  | 
CCc1cccc(Cl)c1COc1ccc2c(c1)OCC21CCN(CC(C)C(=O)O)CC1.Cl (stereo unspecified) | ≥ 100 µM | 3.8 h | 15.8 nM | 100 | 6.1 µL/min/mg | > 10000 nM | 316 nM |  |  |  |  | 
Cl.O=C(O)CCN1CCC2(CC1)COc1cc(OCc3cc(Cl)nc(Cl)c3)ccc12 | > 100 µM | 1.67 h | 316 nM |  | 13.9 µL/min/mg | > 10000 nM | > 31600 nM |  |  |  |  | 
Cl.O=C(O)CCN1CCC2(CC1)COc1cc(OCc3c(F)cccc3Cl)ccc12 | 30 to 100 µM | 8.42 h | 63.1 nM | 100 | 2.7 µL/min/mg |  | 6310 nM |  |  |  |  | 
O=C(O)CCN1CCC2(CC1)COc1cc(OCc3cc(Cl)ccc3Cl)ccc12 |  |  | 200 nM |  |  | 1000 nM | 12600 nM |  |  |  |  | 
CCCc1cccc(Cl)c1COc1ccc2c(c1)OCC21CCN(CCC(=O)O)CC1 |  |  | 15.8 nM | 100 |  | 2000 nM | 2000 nM |  |  |  |  | 
CCc1cccc(Cl)c1CSc1ccc2c(c1)OCC21CCN(CCC(=O)O)CC1.Cl | 30 to 100 µM | 0.55 h | 2.51 nM | 100 | 42 µL/min/mg | > 1000 nM | 126 nM |  |  |  |  | 
Cl.O=C(O)CCN1CCC2(CC1)COc1cc(SCc3c(Cl)cccc3Cl)ccc12 | ≥ 100 µM | 1.08 h | 12.6 nM | 100 | 21 µL/min/mg | 3980 nM | > 10000 nM | 1000 |  |  |  | 
O=C(O)CCN1CCC2(CC1)COc1cc(OCc3c(Cl)cccc3C(F)(F)F)ccc12 |  |  | 126 nM |  |  | > 10000 nM | 316 nM |  |  |  |  | 
Cc1cc(Cl)c(COc2ccc3c(c2)OCC32CCN(CCC(=O)O)CC2)c(Cl)c1 |  |  | 7.94 nM |  |  |  | 316 nM |  |  |  |  | 
